Source: US12630829B2, “Gene encoding cytochrome P450 and use thereof” (KUMIAI CHEMICAL INDUSTRY CO., LTD., priority 2020, dated 2026)
“Also recorded” adds a separate entry of the source.

Columns and labels:
[1] = system: AK454412 (wheat-derived P450) co-expressed with TaCPR; assay: In vitro metabolism test using co-expression crude enzyme of AK454412 and TaCPR (LC/MS); assay type: in vitro ADME; conditions: 10 μM fenquinotrione, 1 mg crude enzyme, 1 mM β-NADPH, 30° C., 1 hour
Description: A single colony of the recombinant E. coli into which each of the above-described two expression constructs had been introduced was inoculated in 3 ml of LB liquid medium, followed by culturing at 37° C. and 200 rpm overnight. 2.5 mL of the resultant culture fluid was added to 250 mL of TB medium (containing 100 ppm carbenicillin and 50 ppm chloramphenicol) held in a 1 L Erlenmeyer flask, followed by culturing at 37° C. and 200 rpm until an OD600 of about 0.5 to 0.6 was obtained. After the resultant flask was cooled with ice, IPTG and aminolaevulinic acid were added thereto to final concentrations of 1 mM and 0.5 mM, respectively, followed by culturing at 20° C. and 110 rpm. 22 hours after the IPTG induction, the resultant culture fluid was centrifuged (4° C., 15,000 rpm, 1 min). A bacterial cell in the obtained 500 mL of culture fluid was suspended in 35 mL of P450 Buffer [50 mM potassium phosphate buffer (pH 7.3), 20% glycerol, 1 mM EDTA, and 1 mM DTT] to be sonicated, followed by centrifugation at 4° C. and at 6,000×g for 10 minutes. The supernatant was centrifuged at 4° C. and at 100,000×g for 1 hour, and a solution obtained by adding P450 Buffer by 1 mL to the obtained precipitate and homogenizing the resultant with a Teflon homogenizer was used as a co-expression crude enzyme solution for AK454412 and TaCPR. […]

CYP81A6 = conditions: reported so far; cited from earlier work
[2] = system: wild type Arabidopsis thaliana; assay: Fenquinotrione sensitivity test on MS solid medium, wild type; assay type: in vivo; conditions: 10 nM in MS solid medium, 22° C., about 10 days, evaluated subjectively
Description: With a sensitivity difference from wild type Arabidopsis thaliana used as an index, it was verified whether or not the created transformant had resistance to fenquinotrione. In MS solid media in each of which fenquinotrione was added to a final concentration of 10,000, 1,000, 100, 10, or 1 nM, or 0.1% of DMSO was added as an untreated plot, sterilized seeds of Arabidopsis thaliana having AK454412 forced expression and wild type Arabidopsis thaliana were each seeded, and grown at 22° C. for about 10 days. The sensitivity to this drug was evaluated subjectively in accordance with the degree of chlorosis of acting symptom. The results are illustrated in FIG. 9. FIG. 9(A) illustrates results obtained in using the wild type Arabidopsis thaliana, and FIG. 9(B) illustrates results obtained in using the Arabidopsis thaliana having AK454412 forced expression.

[3] = system: AK369081 (barley-derived P450) co-expressed with TaCPR; assay: In vitro drug metabolism test of AK369081 protein against fenquinotrione; assay type: in vitro ADME; conditions: test method and conditions of Example 1; AK369081 reaction plot
Description: It was verified by in vitro metabolism test whether or not a novel wheat-derived P450 of AK454412 is involved in herbicide metabolism. As a compound having high safety against wheat, fenquinotrione was used. […] A solution after completing the enzymatic reaction was centrifuged at 15,000 rpm for 1 minute, and the obtained supernatant was filtered through a 0.45 μm filter and then tested by LC/MS. LC/MS conditions were as follows:
Specifically, in the same manner as in KJ541960, recombinant proteins of these genes were prepared to evaluate, by in vitro test, whether or not these have fenquinotrione metabolic activity. First, an expression vector was designed by inserting, between NdeI and EcoRI sites of pET-22b(+), a nucleotide sequence, which encoded a sequence obtained by removing the transmembrane region (AK375492: 35 N-terminal amino acid residues, AK369081: 37 N-terminal amino acid residues) of each of the genes of Accession Nos. AK375492 and AK369081, and adding the 6β sequence (MAKKTSS) to the N-terminal, and synthesis of artificial genes was requested of GenScript. Each of the synthesized expression vectors (6β AK375492 in pET-22b, 6β AK369081 in pET-22b) was co-introduced, together with pACYC-del31_TaCPR, into E. coli BL21 star (DE3) strain for protein expression (FIG. 15). […]

For COc1ccc(-n2c(=O)c(C(=O)C3C(=O)CCCC3=O)nc3c(Cl)cccc32)cc1 [fenquinotrione], the “metabolic degradation of fenquinotrione (production of the demethylated product, LC/MS)” value [1] is given as “metabolically degrades fenquinotrione to the demethylated product; also recorded: a parent peak of fenquinotrione was reduced, and a peak of the demethylated product appeared”, the “metabolic reactivity of CYP81A6 against the compound” value (CYP81A6) is given as “exhibits metabolic reactivity” and the “wild type Arabidopsis thaliana having chlorosis” value [2] is given as no less than 90%. The “metabolism of fenquinotrione (generation of demethylated product as index)” value [3] was “a peak of the demethylated product (RT=in the vicinity of 15.1) appeared”.
